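The compound was tested at five concentrations on cells cultured in 96-well plates, with a 48-hour exposure period. GI50: concentration for 50% inhibition of growth.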 Calls of active or inactive are those of the source. Rule as the data show it: active = GI50 up to about 1.1 µM and inactive = higher.
What was measured:
Test in all cases: DTP human tumour cell line panel, 48 h
[1] = system: OVCAR-8
[2] = system: HCT-15
[3] = system: SF-268
[4] = system: KM12
[5] = system: NCI-H226
[6] = system: A549
[7] = system: K562
[8] = system: Malme-3M
[9] = system: EKVX
[10] = system: IGROV-1
[11] = system: HL-60
[12] = system: OVCAR-4
[13] = system: UACC-257
[14] = system: MOLT-4
[15] = system: NCI-H23

Row | Compound | GI50 [1] | GI50 [2] [µM] | GI50 [3] | GI50 [4] | GI50 [5] | GI50 [6] | GI50 [7] | GI50 [8] | GI50 [9] | GI50 [10] | GI50 [11] | GI50 [12] | GI50 [13] | GI50 [14] | GI50 [15]
1 | O=c1nc(NC2CCCCO2)ccn1CCO (stereo not drawn) | > 100 µM (inactive) | > 100 | > 100 µM (inactive) | > 100 µM (inactive) | > 100 µM (inactive) | > 100 µM (inactive) | > 100 µM (inactive) | > 100 µM (inactive) | > 100 µM (inactive) | > 100 µM (inactive) | > 100 µM (inactive) | > 100 µM (inactive) | > 100 µM (inactive) |  | 
2 | CCOC(=O)Nc1ccc(S(=O)(=O)OC)cc1.CCOC(=O)Nc1ccc(S(=O)(=O)OC)cc1.NNC(=O)c1ccncc1 | > 50 µM (inactive) | > 50 | > 50 µM (inactive) | > 50 µM (inactive) | > 50 µM (inactive) | > 50 µM (inactive) | 40.2 µM (inactive) | > 50 µM (inactive) | > 50 µM (inactive) | > 50 µM (inactive) | > 50 µM (inactive) | > 50 µM (inactive) | > 50 µM (inactive) | > 50 µM (inactive) | > 50 µM (inactive)
3 | c1ccc2c3c([nH]c2c1)C1C2CCCCN2C(c2ccncc2)N1CC3 (stereo not drawn) | 38.1 µM (inactive) | 35.5 | > 10 µM (inactive) | 35.9 µM (inactive) |  | 32.2 µM (inactive) | 32.1 µM (inactive) | 34 µM (inactive) | 54.3 µM (inactive) |  | 21.5 µM (inactive) | 61.5 µM (inactive) | 51.2 µM (inactive) | 43.3 µM (inactive) | 34.4 µM (inactive)
4 | O=C(c1ccc(Cl)cc1)N(C(=S)N1CCN(c2ccccc2)CC1)C1CCCCC1 | > 100 µM (inactive) | > 100 | > 100 µM (inactive) | > 100 µM (inactive) | 1.03 µM (active) | > 100 µM (inactive) | 58.2 µM (inactive) | > 100 µM (inactive) |  | > 100 µM (inactive) | 94.6 µM (inactive) | > 100 µM (inactive) | 91.2 µM (inactive) | 54.2 µM (inactive) | > 100 µM (inactive)
5 | CC1(C(=O)Nc2ccc3cc4ccccc4cc3c2)CC2(C)CC(C)(C1)C(O)NC2=O (stereo not drawn) | > 100 µM (inactive) | > 100 | > 100 µM (inactive) | > 100 µM (inactive) | 53.1 µM (inactive) | 98.4 µM (inactive) | 73.1 µM (inactive) | 57.3 µM (inactive) | > 100 µM (inactive) | > 100 µM (inactive) | 20.9 µM (inactive) | > 100 µM (inactive) | > 100 µM (inactive) | 20.6 µM (inactive) | > 100 µM (inactive)
6 | CC1=NN(c2ccccc2)C(=O)C1/N=N/c1ccc(Br)cc1C (stereo not drawn) | 95.9 µM (inactive) | > 100 | > 100 µM (inactive) | > 100 µM (inactive) | 35.9 µM (inactive) | 40.5 µM (inactive) | > 100 µM (inactive) | > 100 µM (inactive) | > 100 µM (inactive) | 67.3 µM (inactive) | > 100 µM (inactive) | 62.7 µM (inactive) | > 100 µM (inactive) | > 100 µM (inactive) | 38 µM (inactive)
7 | N#Cc1ccccc1NC(=O)/C(=N\Nc1ccc([N+](=O)[O-])cc1)C1C(=O)NC(=O)NC1=O | > 100 µM (inactive) | > 100 | > 100 µM (inactive) | > 100 µM (inactive) |  | > 100 µM (inactive) | > 100 µM (inactive) | > 100 µM (inactive) | > 100 µM (inactive) | > 100 µM (inactive) | > 100 µM (inactive) | > 100 µM (inactive) | > 100 µM (inactive) | > 100 µM (inactive) | > 100 µM (inactive)
8 | COc1ccc(/C=C(\C(C)=O)C(=O)Nc2ccccc2)cc1 | > 100 µM (inactive) | > 100 | > 100 µM (inactive) | > 100 µM (inactive) | > 100 µM (inactive) | > 100 µM (inactive) | > 100 µM (inactive) | > 100 µM (inactive) | > 100 µM (inactive) | > 100 µM (inactive) | > 100 µM (inactive) | > 100 µM (inactive) | > 100 µM (inactive) | > 100 µM (inactive) | > 100 µM (inactive)
9 | C=C(CN(C)C)C(=O)c1ccccc1C | > 100 µM (inactive) | 24.9 | 77.1 µM (inactive) | > 100 µM (inactive) | > 100 µM (inactive) | > 100 µM (inactive) | 15.7 µM (inactive) | 17.9 µM (inactive) | > 100 µM (inactive) | > 100 µM (inactive) | 5.52 µM (inactive) | > 57.9 µM (inactive) | > 55.7 µM (inactive) | 7.52 µM (inactive) | > 100 µM (inactive)
10 | COC(=O)c1ccccc1N(C(=O)c1ccccc1)c1ccccc1C | 37.5 µM (inactive) | 38.5 | > 100 µM (inactive) | 32.7 µM (inactive) | 74.3 µM (inactive) | 61.9 µM (inactive) | 41.1 µM (inactive) | 36.3 µM (inactive) | 53.2 µM (inactive) | 76.6 µM (inactive) | 19.5 µM (inactive) | 44.2 µM (inactive) | 39.2 µM (inactive) | 22.4 µM (inactive) | 32.1 µM (inactive)
11 | O=C(C(=O)n1ncc(Cl)c(Cl)c1=O)n1ncc(Cl)c(Cl)c1=O | 23.1 µM (inactive) | 17.5 | 42.4 µM (inactive) | 27.7 µM (inactive) | > 100 µM (inactive) | 96.8 µM (inactive) | 20.3 µM (inactive) | 19.7 µM (inactive) | 40.4 µM (inactive) | 27.4 µM (inactive) | 5.82 µM (inactive) | 19.6 µM (inactive) | 19.5 µM (inactive) | 14.8 µM (inactive) | 19.8 µM (inactive)
12 | COc1ccc(C/C(=N/O)C(=O)NCCc2cc(Br)c(OCCCN(C)C)c(Br)c2)cc1Br [APLYSAMINE 2] | 21.9 µM (inactive) |  | 18.5 µM (inactive) | 16.6 µM (inactive) |  | 20 µM (inactive) |  | 27.6 µM (inactive) | 19.6 µM (inactive) |  | 12.3 µM (inactive) | 17 µM (inactive) | 16.1 µM (inactive) |  | > 10 µM (inactive)
13 | CCN(CC)c1ccc(/N=N/c2ccc(-c3nc4ccc[n+](C)c4o3)cc2)cc1 | 5.11 µM (inactive) | 10.3 | 12.6 µM (inactive) | 11.1 µM (inactive) | 11.5 µM (inactive) | 9.77 µM (inactive) | 2.4 µM (inactive) | 2.31 µM (inactive) | 13.6 µM (inactive) | 12.9 µM (inactive) | 2.06 µM (inactive) | 12 µM (inactive) | 7.01 µM (inactive) | 3.66 µM (inactive) | 12.8 µM (inactive)
14 | CN(C)c1ccc(C2CC(=O)C(C#N)=C(c3ccccc3)NN2C)cc1 (stereo not drawn) |  | 4.33 | 17.2 µM (inactive) | 6.04 µM (inactive) | 37.4 µM (inactive) | 8.04 µM (inactive) |  | 5.65 µM (inactive) |  |  | 3.13 µM (inactive) | 31.6 µM (inactive) | 6.76 µM (inactive) | 8.47 µM (inactive) | 32.4 µM (inactive)
15 | CC(C)c1ccc(O)c(Cc2cc(C(C)C)cc(Cc3cc(C(C)C)ccc3O)c2O)c1 | 2.09 µM (inactive) | 1.7 | 1.82 µM (inactive) | 1.97 µM (inactive) | 1.54 µM (inactive) | 1.9 µM (inactive) | 2.23 µM (inactive) | 1.5 µM (inactive) | 2.65 µM (inactive) | 2.46 µM (inactive) | 2 µM (inactive) | 1.39 µM (inactive) | 1.71 µM (inactive) | 1.78 µM (inactive) | 1.7 µM (inactive)
16 | COc1ccccc1/C=C1\CCC(CCN(C)C)(C2=CCCC2)C1=O (stereo not drawn) | 17.5 µM (inactive) | 19.2 | 19.4 µM (inactive) | 18.2 µM (inactive) | 19.5 µM (inactive) | 23.9 µM (inactive) | 11.1 µM (inactive) | 15.7 µM (inactive) | 1.81 µM (inactive) | 14.1 µM (inactive) | 21.6 µM (inactive) | 17.7 µM (inactive) | 17.2 µM (inactive) | 20.7 µM (inactive) | 31.6 µM (inactive)
17 | Cc1cc2c(cc1C)[n+]([O-])c(C(=O)CC(=O)C(=O)Nc1ccccc1C(C)C)c(C)[n+]2[O-] | > 100 µM (inactive) | > 100 | > 100 µM (inactive) | > 100 µM (inactive) | > 100 µM (inactive) | > 100 µM (inactive) | > 100 µM (inactive) | > 100 µM (inactive) | > 100 µM (inactive) | > 100 µM (inactive) | > 100 µM (inactive) | > 100 µM (inactive) | 1.08 µM (active) | > 100 µM (inactive) | > 100 µM (inactive)
18 | COc1ccc(NC(=O)C(=O)c2c(O)c3ccc(O)cc3oc2=O)c([N+](=O)[O-])c1 |  | > 100 | > 100 µM (inactive) | > 100 µM (inactive) | > 100 µM (inactive) | > 100 µM (inactive) | > 100 µM (inactive) | > 100 µM (inactive) | > 100 µM (inactive) | > 100 µM (inactive) | > 100 µM (inactive) | > 100 µM (inactive) | > 100 µM (inactive) | > 100 µM (inactive) | > 100 µM (inactive)
19 | O=c1c2cc(Cl)ccc2sc2cccc(Cl)c12 | > 100 µM (inactive) | > 100 | > 100 µM (inactive) | > 100 µM (inactive) | > 100 µM (inactive) | > 100 µM (inactive) | > 100 µM (inactive) |  | > 100 µM (inactive) | > 100 µM (inactive) | > 100 µM (inactive) | > 100 µM (inactive) | > 100 µM (inactive) | > 100 µM (inactive) | > 100 µM (inactive)
20 | O=C(N/C=C1\C(=O)Oc2ccccc2C1=O)Nc1ccccc1 | 44.1 µM (inactive) | 40.3 | 31.8 µM (inactive) | 64 µM (inactive) | 23.5 µM (inactive) | 53.1 µM (inactive) | > 100 µM (inactive) | 17 µM (inactive) | > 100 µM (inactive) | 51.2 µM (inactive) | > 100 µM (inactive) | > 100 µM (inactive) | 91.2 µM (inactive) | > 100 µM (inactive) | 88.7 µM (inactive)

From ChEMBL document CHEMBL1201862, “PubChem BioAssay data set” (2004)
